Here are results for 88 sequences from the OligoGym collection.

Several values for one entry are separate records, joined by “and”; a condition that tells them apart may be missing. Equal values may be shown once. After the bases stand the sugars from the 5' end (letter, count) and the backbone: PS all phosphorothioate, else s phosphorothioate and o phosphodiester by linkage. Methylation of C is not given here. e = 2'-O-(2-methoxyethyl) (MOE); k = constrained ethyl (cEt); d = 2'-deoxy (DNA)

The target in the first data set is IRF4. To be noted: ASO, MM.1R, 0.0625 µM.
Consider ACAAGCAGTGATGTCA (sugars k3 d10 k3, PS), for which the target mRNA inhibition was -4%.

In the case of ACCATATTGGAAACCA (sugars k3 d10 k3, PS), the target mRNA inhibition is -12%.

Staying with this data set, now noted: ASO, MM.1R, 0.074 µM.
Regarding ACAAGCAGTGATGTCA (sugars k3 d10 k3, PS), the target mRNA inhibition was 2%. As to ACCATATTGGAAACCA (sugars k3 d10 k3, PS), the target mRNA inhibition was -11%.

Staying with this data set, now noted: ASO, MM.1R, 0.222 µM.
Regarding ACAAGCAGTGATGTCA (sugars k3 d10 k3, PS), the target mRNA inhibition stood at 6%.

As to ACCATATTGGAAACCA (sugars k3 d10 k3, PS), the target mRNA inhibition is -18%.

The same data set, now with this note: ASO, MM.1R, 0.25 µM.
Regarding ACAAGCAGTGATGTCA (sugars k3 d10 k3, PS), the target mRNA inhibition came out at 5%. Consider ACCATATTGGAAACCA (sugars k3 d10 k3, PS), for which the target mRNA inhibition was -6%.

Still in this data set, the particulars now being: ASO, MM.1R, 0.666 µM.
ACAAGCAGTGATGTCA (sugars k3 d10 k3, PS): the target mRNA inhibition was determined as 14%. Consider ACCATATTGGAAACCA (sugars k3 d10 k3, PS), for which the target mRNA inhibition was -1%.

The data set is the same for the next values; noted with them: ASO, MM.1R, 1 µM.
For the sequence AATCTGGATGAGCTTA (sugars k3 d10 k3, PS), the target mRNA inhibition was determined as 4%. Regarding “AATGTGTATTACTCTT (sugars kddddddddddkekek, PS)”, the target mRNA inhibition is 24% and 29%. In the case of “AATGTGTATTACTCTT (sugars kkdddddddddkdkdk, PS)”, the target mRNA inhibition is 10% and 15%. As for AATTCCATAGAGCCAG (sugars k3 d10 k3, PS), the target mRNA inhibition stood at 18%.

For ACAAGCAGTGATGTCA (sugars k3 d10 k3, PS), the target mRNA inhibition stood at 14%. As for “ACACTTTTAGAGAGGA (sugars e1 k2 d9 k2 e2, PS)”, the target mRNA inhibition came to 29%. Same read-out and setting: the figure for “ACACTTTTAGAGAGGA (sugars k3 d9 k3 e1, PS)” is 29%. As to “ACACTTTTAGAGAGGA (sugars kddddddddddkekek, PS)”, the target mRNA inhibition was -6%.

Take “ACACTTTTAGAGAGGA (sugars kdddddddddkekeke, PS)”: the target mRNA inhibition is 6%.

For the sequence “ACACTTTTAGAGAGGA (sugars kkkddddddddkekek, PS)”, the target mRNA inhibition came to 15%. ACAGAGAGTCCGACGC (sugars k3 d10 k3, PS): the target mRNA inhibition was -8%.

Consider ACAGATGGCATGCGAA (sugars k3 d10 k3, PS), for which the target mRNA inhibition stood at 19%. Regarding ACAGCCGAAGCATTTT (sugars k3 d10 k3, PS), the target mRNA inhibition was found to be 8%. In the case of “ACAGTGACTTGCATCC (sugars kkdddddddddkekek, PS)”, the target mRNA inhibition was 32%. With ACCATATTGGAAACCA (sugars k3 d10 k3, PS), the target mRNA inhibition was found to be 3%. Turning to ACCCAAATGTGGAGCT (sugars k3 d10 k3, PS), the target mRNA inhibition worked out at 3%. For ACCCACGAAGATTCAA (sugars k3 d10 k3, PS), the target mRNA inhibition was -17%. In the case of ACCGACTCTTTTTTTA (sugars k3 d10 k3, PS), the target mRNA inhibition is -2%.

In the case of “ACCTCAGTTTGTGAAG (sugars k2 d9 e3 k2, PS)”, the target mRNA inhibition amounted to 4%. As for “ACCTCAGTTTGTGAAG (sugars kkddddddddddkeke, PS)”, the target mRNA inhibition is -12%. “ACCTCAGTTTGTGAAG (sugars kkdddddddddekeke, PS)”: the target mRNA inhibition turned out to be 13%. For the sequence “ACCTCAGTTTGTGAAG (sugars kkdddddddddkdkdk, PS)”, the target mRNA inhibition was -3%. Same read-out and setting: as for ACGCACCCGCAGCCCA (sugars k3 d10 k3, PS), the figure is -10%; as for “ACGGAAGTTTACACTG (sugars kkddddddddddkeke, PS)”, 13%. Turning to “ACGGAAGTTTACACTG (sugars kkdddddddddekeke, PS)”, the target mRNA inhibition came out at 8%. Take “ACGGAAGTTTACACTG (sugars kkdddddddddkdkdk, PS)”: the target mRNA inhibition is -2%. As for “ACGGAAGTTTACACTG (sugars kkkdddddddddkeke, PS)”, the target mRNA inhibition was determined as 13%. Take “ACGTGTGCTTGCCAAG (sugars kkddddddddddkeke, PS)”: the target mRNA inhibition is 6% and 26%. For the sequence “ACTGCTTGAGGTTTTC (sugars e1 k2 d9 k2 e2, PS)”, the target mRNA inhibition is 46%. Turning to “ACTGCTTGAGGTTTTC (sugars k2 d9 e3 k2, PS)”, the target mRNA inhibition worked out at 45%. With “ACTGCTTGAGGTTTTC (sugars k3 d9 k3 e1, PS)”, the target mRNA inhibition is 52%.

The data set is the same for the next values; noted with them: ASO, MM.1R, 2 µM.
As for ACAAGCAGTGATGTCA (sugars k3 d10 k3, PS), the target mRNA inhibition was 46%.

Take ACCATATTGGAAACCA (sugars k3 d10 k3, PS): the target mRNA inhibition amounted to 13%.

The data set is the same for the next values; noted with them: ASO, MM.1R, 4 µM.
Regarding ACAAGCAGTGATGTCA (sugars k3 d10 k3, PS), the target mRNA inhibition was determined as 52%.

On to ACCATATTGGAAACCA (sugars k3 d10 k3, PS), for which the target mRNA inhibition was determined as 34%.

The data set is the same for the next values; noted with them: ASO, SK-MEL-28, 4 µM.
On to AAGTTTACACTGGATC (sugars k3 d10 k3, PS), for which the target mRNA inhibition stood at 58%. Regarding AATAAGCTCATCTGCC (sugars k3 d10 k3, PS), the target mRNA inhibition is 36%. Same read-out and setting: as for AATATAGTTGTCTGGC (sugars k3 d10 k3, PS), the figure is 50%. Regarding AATCAGATGATGTCTA (sugars k3 d10 k3, PS), the target mRNA inhibition was -3%. In the case of AATCTTCTGCTGATCC (sugars k3 d10 k3, PS), the target mRNA inhibition came out at 72%. On to AATGAAGATCCACTAG (sugars k3 d10 k3, PS), for which the target mRNA inhibition turned out to be 61%. For the sequence AATGAGGAAGCCGTTC (sugars k3 d10 k3, PS), the target mRNA inhibition turned out to be 47%. For AATGAGTCGGTCACTT (sugars k3 d10 k3, PS), the target mRNA inhibition turned out to be 46%. As for AATGCATAACACGGTG (sugars k3 d10 k3, PS), the target mRNA inhibition is 49%.

As for AATGTCCACTGTTTTG (sugars k3 d10 k3, PS), the target mRNA inhibition was found to be 47%. For the sequence AATTAAAGAGCGCATT (sugars k3 d10 k3, PS), the target mRNA inhibition was 17%.

With AATTGGCACGAGGAAG (sugars k3 d10 k3, PS), the target mRNA inhibition came to 28%. Still for that read-out and setting: the figure for AATTTCCATTGGAGGA (sugars k3 d10 k3, PS) is 33%; for AATTTTCACAGTGATC (sugars k3 d10 k3, PS) it is 34%; for ACAAAAGGTTCCCGCG (sugars k3 d10 k3, PS) it is 3%.

For ACAAGCAGTGATGTCA (sugars k3 d10 k3, PS), the target mRNA inhibition worked out at 73%. As to ACAAGCATAAAAGGTT (sugars k3 d10 k3, PS), the target mRNA inhibition amounted to 4%. Regarding ACAAGCTGGGCCTTGC (sugars k3 d10 k3, PS), the target mRNA inhibition came out at 27%. Regarding ACAATAAAATGTCACG (sugars k3 d10 k3, PS), the target mRNA inhibition was determined as 29%. With ACAATACTGTAAGGGC (sugars k3 d10 k3, PS), the target mRNA inhibition was 75% and 68%. In the case of ACACAAGTGGCCTTCC (sugars k3 d10 k3, PS), the target mRNA inhibition came to 31%.

Turning to ACACACAAGTGGCCTT (sugars k3 d10 k3, PS), the target mRNA inhibition is 44%. Regarding ACACACCAGGTTAAAC (sugars k3 d10 k3, PS), the target mRNA inhibition turned out to be 12%. On the same count and under the same terms, as for ACACACCTGACAACCA (sugars k3 d10 k3, PS), the figure is 36%. The same measure, in the same setting: the figure for ACACAGCCTCGCCCTC (sugars k3 d10 k3, PS) is 20%. Turning to ACACTTTGTACGGGTC (sugars k3 d10 k3, PS), the target mRNA inhibition was determined as 56%.

In the case of ACAGAGCCAACTTATA (sugars k3 d10 k3, PS), the target mRNA inhibition amounted to 6%.

As to ACAGGCACGGCTTCAG (sugars k3 d10 k3, PS), the target mRNA inhibition is 64%. With ACAGTAAGAGGGCAGT (sugars k3 d10 k3, PS), the target mRNA inhibition was 84%.

As to ACATAACTCAGGCAAG (sugars k3 d10 k3, PS), the target mRNA inhibition came out at 1%. Turning to ACCAACGACAGCATAG (sugars k3 d10 k3, PS), the target mRNA inhibition came to 67%. Take ACCAATTTATGCCATG (sugars k3 d10 k3, PS): the target mRNA inhibition came out at 17%.

With ACCATATTGGAAACCA (sugars k3 d10 k3, PS), the target mRNA inhibition came to 74%. For the sequence ACCATGTTCCTGAAGA (sugars k3 d10 k3, PS), the target mRNA inhibition was determined as 44%. On to ACCATTACTTAGACAT (sugars k3 d10 k3, PS), for which the target mRNA inhibition is 65%. Same read-out and setting: the figure for ACCATTCAGACAGATG (sugars k3 d10 k3, PS) is 30%; for ACCCAATAGTCTAGCT (sugars k3 d10 k3, PS) it is 25%. On the same count and under the same terms, as for ACCCACCCAGTGTCTG (sugars k3 d10 k3, PS), the figure is 18%; as for ACCCAGTGGTAGGTAG (sugars k3 d10 k3, PS), 30%; as for ACCCATTTAATCTGTC (sugars k3 d10 k3, PS), 57%. Same read-out and setting: the figure for ACCCTCCCCAACTTAA (sugars k3 d10 k3, PS) is 10%. In the case of ACCTAATCTACAACAA (sugars k3 d10 k3, PS), the target mRNA inhibition is 17%. Take ACCTGCATCGAGATCA (sugars k3 d10 k3, PS): the target mRNA inhibition was 53%. Consider ACCTGGCAACCATTTT (sugars k4 d8 k4, PS), for which the target mRNA inhibition is 19%. On to ACCTTAACCAATCCCA (sugars k3 d10 k3, PS), for which the target mRNA inhibition came out at 71%.

In the case of ACCTTATGCTTGGCTC (sugars k3 d10 k3, PS), the target mRNA inhibition turned out to be 31%. Take ACCTTTTTTGGCTCCC (sugars k3 d10 k3, PS): the target mRNA inhibition was 21%. Regarding ACGACTTAAGCTAAAC (sugars k3 d10 k3, PS), the target mRNA inhibition worked out at 58%. In the case of ACGATGATAGCTCACC (sugars k3 d10 k3, PS), the target mRNA inhibition turned out to be 8%. As to ACGCAAGGCTCGGAGC (sugars k3 d10 k3, PS), the target mRNA inhibition came out at 21%. On the same count and under the same terms, the figure for ACGCAGCCTCTAAGAA (sugars k3 d10 k3, PS) is 25%; for ACGCCTTAATGTTCAG (sugars k3 d10 k3, PS) it is 77%. Same read-out and setting: as for ACGGAAGTTTACACTG (sugars k3 d10 k3, PS), the figure is 77%; as for ACGGACGGAGGCGGCA (sugars k3 d10 k3, PS), 11%; as for ACTAAGGACAGCTGTG (sugars k3 d10 k3, PS), 15%.

ACTCACTAAAGACTAT (sugars k3 d10 k3, PS): the target mRNA inhibition was determined as 18%.

As to ACTCATAGGTGTACAC (sugars k3 d10 k3, PS), the target mRNA inhibition came to 45%. Take ACTCATGGAGGATCAT (sugars k3 d10 k3, PS): the target mRNA inhibition was 19%.

ACTGAGTGTGCAGTTC (sugars k3 d10 k3, PS): the target mRNA inhibition stood at 36%.
